Data as given in ChEMBL document CHEMBL4229403, “Protein Arginine Methyltransferase 5 (PRMT5) as an Anticancer Target and Its Inhibitor Discovery” (J Med Chem, 2018).
Blank lines part the entries; values can stand above or below the compound they belong to.

Legend:
[1] = target: T1, Protein arginine N-methyltransferase 5 (Homo sapiens, UniProt O14744); assay: Inhibition of PRMT5 (unknown origin) using H4R3 as substrate by HTRF assay
[2] = target: T1, Protein arginine N-methyltransferase 5; assay: Inhibition of human PRMT5 expressed in insect cells co-expressing His-tagged MEP50 using Ser-Gly-Arg-Gly- Lys-Gly-Gly-Lys-Gly-Leu-Gly-Lys-Gly-Gly-Ala-Lys-Arg-His-Arg-Lys-Val-NH2 peptide as substrate after 4 hrs in presence of SAM by Transcreene EPIGEN methyltransferase assays
[3] = target: PRMT5/MEP50 complex (Homo sapiens) (UniProt O14744+Q9BQA1); assay: (§1) Inhibition of human N-terminal FLAG-tagged PRMT5 (2 to end)/human N-terminal His-tagged MEP50 (2 to end) expressed in HEK293 cells at 50 uM using biotinylated H4 derived peptide as substrate preincubated for 15 mins followed by substrate addition measured after 60 mins ibn presence of [3H]SAM by liquid scintillation counting
[4] = target: PRMT5/MEP50 complex (Homo sapiens, UniProt O14744); assay: as §1, with “cells” for “cells at 50 uM”, “in” for “ibn”; assay type: cell-based
PRMT5/MEP50 complex, sequence (O14744 whole entry): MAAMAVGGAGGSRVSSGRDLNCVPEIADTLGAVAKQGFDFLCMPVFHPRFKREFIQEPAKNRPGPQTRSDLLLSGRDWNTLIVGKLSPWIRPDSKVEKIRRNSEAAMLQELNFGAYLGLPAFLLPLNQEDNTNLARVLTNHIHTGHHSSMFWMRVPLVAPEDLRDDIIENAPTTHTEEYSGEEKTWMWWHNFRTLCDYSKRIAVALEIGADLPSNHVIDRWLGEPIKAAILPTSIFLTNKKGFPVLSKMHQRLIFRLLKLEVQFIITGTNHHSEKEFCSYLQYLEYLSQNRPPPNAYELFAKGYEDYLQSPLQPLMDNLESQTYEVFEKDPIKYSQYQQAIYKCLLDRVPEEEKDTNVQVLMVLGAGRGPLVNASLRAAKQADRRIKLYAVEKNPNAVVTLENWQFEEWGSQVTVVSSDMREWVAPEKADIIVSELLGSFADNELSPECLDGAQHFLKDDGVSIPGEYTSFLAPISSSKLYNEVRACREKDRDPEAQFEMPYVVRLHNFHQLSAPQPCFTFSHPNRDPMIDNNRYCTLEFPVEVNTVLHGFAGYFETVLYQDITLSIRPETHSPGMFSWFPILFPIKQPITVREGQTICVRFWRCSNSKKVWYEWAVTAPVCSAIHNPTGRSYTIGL
PRMT5/MEP50 complex, sequence (Q9BQA1 whole entry, further chain): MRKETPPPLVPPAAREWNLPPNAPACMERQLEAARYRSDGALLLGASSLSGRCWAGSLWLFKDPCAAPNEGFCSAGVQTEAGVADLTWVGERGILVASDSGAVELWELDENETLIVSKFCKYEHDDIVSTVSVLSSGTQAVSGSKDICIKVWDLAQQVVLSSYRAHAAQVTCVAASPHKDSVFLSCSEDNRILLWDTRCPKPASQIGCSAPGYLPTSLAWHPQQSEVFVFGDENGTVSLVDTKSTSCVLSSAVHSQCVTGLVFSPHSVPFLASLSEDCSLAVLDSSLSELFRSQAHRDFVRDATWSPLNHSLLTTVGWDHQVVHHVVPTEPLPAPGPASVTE

[5] = Antiproliferative activity against human Th1 cells by trypan blue exclusion assay; assay type: functional, cell-based
[6] = Antiproliferative activity against human TH2 cells by trypan blue exclusion assay; assay type: functional, cell-based
[7] = tested on: Z-138; assay: Antiproliferative activity against human Z138 cells after 3 days by cell titer-glo luminescent cell viability assays; assay type: functional, cell-based; settings: Z-138, 72 h
[8] = tested on: JeKo-1; assay: Antiproliferative activity against human JeKo1 cells after 3 days by cell titer-glo luminescent cell viability assays; assay type: functional, cell-based; settings: JeKo-1, 72 h
[9] = tested on: Maver1; assay: Antiproliferative activity against human Maver1 cells after 3 days by cell titer-glo luminescent cell viability assays; assay type: functional, cell-based; settings: Maver1, 72 h
[10] = target: T1, Protein arginine N-methyltransferase 5; assay: Inhibition of human 6xHis-tagged PRMT5 expressed in bacterial expression system using histone H2A as substrate after 2 hrs in presence of by S-[methyl-3H]adenosylmethionine by liquid scintillation counting
[11] = Plasma concentration in iv dosed Sprague-Dawley rat administered as single dose; assay type: ADME, organism-based; settings: in vivo
[12] = Plasma concentration in po dosed Sprague-Dawley rat administered as single dose; assay type: ADME, organism-based; settings: in vivo
[13] = target: T1, Protein arginine N-methyltransferase 5; assay: Inhibition of PRMT5 (unknown origin) at 50 uM by radioactive methylation assay
[14] = tested on: Maver1; assay: Antitumor activity against human Maver1 cells xenografted in SCID mouse assessed as tumor growth inhibition at 200 mg/kg, po BID administered for 21 days; assay type: functional; settings: 504 h, read-out: TGI
[15] = Oral bioavailability in mouse at 10 mg/kg; assay type: ADME, organism-based; settings: in vivo
[16] = tested on: Z-138; assay: Antitumor activity against human Z138 cells xenografted in SCID mouse assessed as tumor growth inhibition at 200 mg/kg, po BID administered for 21 days; assay type: functional; settings: Z-138, po, 504 h, read-out: TGI
[17] = Volume of distribution in mouse at 2 mg/kg, iv; assay type: ADME, organism-based; settings: in vivo
[18] = Plasma clearance in mouse at 2 mg/kg, iv; assay type: ADME, organism-based

T1 sequence (O14744 whole entry): as the sequence (O14744 whole entry) above

SMILES: OCCNCc1c(OCc2ccc(Cl)cc2)ccc2ccccc12
inhibition [3]: 69%
IC50 [4]: 35.6 µM

SMILES: CCn1c2ccc(Br)cc2c2cc(CNCc3ccccc3OC)ccc21
IC50 [5]: 1100 nM
IC50 [6]: 4 µM

SMILES: OC(CNCc1c(OCc2ccccc2)ccc2ccccc12)c1ccccc1 (stereo not given)
EC50 [7]: 12.7 µM
EC50 [8]: 10.5 µM
EC50 [9]: 12.7 µM

SMILES: CCn1c2ccccc2c2cc(CNCc3ccccn3)ccc21
inhibition [13]: 7.8%

SMILES: CC(=O)N1CCC(Oc2nccc(C(=O)NC[C@@H](O)CNC3Cc4ccccc4C3)c2Cl)CC1
IC50 [2]: 105 nM

Continued, in another order:

IC50 [1]: > 10 µM
SMILES: O=C(NC[C@H](O)CN1CCCCC1)c1cc(NC2COC2)ncn1

IC50 [2]: 109 nM
SMILES: O=C(NC[C@H](O)CN1CCc2ccccc2C1)c1ccc(C(=O)N2CCOCC2)cc1

inhibition [3]: 2%
SMILES: OCCNCc1cccc2ccccc12

IC50 [10]: 517 nM
concentration [11]: 7.88 µM
concentration [12]: 3.57 µM
SMILES: CCn1c2ccccc2c2cc(CNC3CCCc4ccccc43)ccc21 (stereo not given)

bioavailability [15]: 69%
Vd [17]: 1.7 L/kg
clearance [18]: 30 mL/min/kg
SMILES: O=C(NC[C@H](O)CN1CCc2ccccc2C1)c1cc(NC2COC2)ncn1
inhibition in vivo at 200 mg/kg [14]: > 93%
inhibition in vivo at 200 mg/kg [16]: > 93%
